These results are taken from patent publication US11993599B2, “Therapeutic compounds” (Genentech, Inc., priority 2021, dated 2024).

One test concerns the target BRM (Homo sapiens, UniProt P51531). Nature of the test: Immunofluorescence assay for BRM degradation in SW1573 cells. As to conditions: 20 hours incubation; for DC50: immunofluorescence mean nuclear signal, read-out: BRM IF Degradation IC50; for BRM IF Degradation Sinf (%): normalized to a known degrader control. Set-up: treated overnight at 4° C. with either BRM primary antibody (Cell signaling Cat #11966) or BRG primary antibody; endogenous in cells; host or cells: SW1573. Type of test: cell-based. The method in brief:
(§1)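 Read-out: mean per-cell nuclear BRM or BRG1 immunofluorescence by automated imaging. SW1573, 20 h compound, 4% formaldehyde fix, Triton permeabilization, overnight 4 °C primary antibody, fluorescent secondary plus Hoechst. Normalized to reference degrader; floating-max curve fit gives Dmax.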

Another test has as its target T1, BRG1 (Homo sapiens, UniProt P51532).
T1 construct: either BRM primary antibody (Cell signaling Cat #11966) or BRG primary antibody (Abcam, ab 110641); endogenous in cells; host or cells: SW1573
Kind of test: Immunofluorescence assay for BRG1 degradation in SW1573 cells. Particulars: 20 hours incubation; for DC50: immunofluorescence mean nuclear signal, read-out: BRG1 IF Degradation IC50; for Dmax: SW1573, 20 h, normalized to a known degrader control, read-out: BRG1 IF Degradation Sinf (%). The test is classed as cell-based. The method in brief: as §1

Sequence of BRM (P51531 whole entry): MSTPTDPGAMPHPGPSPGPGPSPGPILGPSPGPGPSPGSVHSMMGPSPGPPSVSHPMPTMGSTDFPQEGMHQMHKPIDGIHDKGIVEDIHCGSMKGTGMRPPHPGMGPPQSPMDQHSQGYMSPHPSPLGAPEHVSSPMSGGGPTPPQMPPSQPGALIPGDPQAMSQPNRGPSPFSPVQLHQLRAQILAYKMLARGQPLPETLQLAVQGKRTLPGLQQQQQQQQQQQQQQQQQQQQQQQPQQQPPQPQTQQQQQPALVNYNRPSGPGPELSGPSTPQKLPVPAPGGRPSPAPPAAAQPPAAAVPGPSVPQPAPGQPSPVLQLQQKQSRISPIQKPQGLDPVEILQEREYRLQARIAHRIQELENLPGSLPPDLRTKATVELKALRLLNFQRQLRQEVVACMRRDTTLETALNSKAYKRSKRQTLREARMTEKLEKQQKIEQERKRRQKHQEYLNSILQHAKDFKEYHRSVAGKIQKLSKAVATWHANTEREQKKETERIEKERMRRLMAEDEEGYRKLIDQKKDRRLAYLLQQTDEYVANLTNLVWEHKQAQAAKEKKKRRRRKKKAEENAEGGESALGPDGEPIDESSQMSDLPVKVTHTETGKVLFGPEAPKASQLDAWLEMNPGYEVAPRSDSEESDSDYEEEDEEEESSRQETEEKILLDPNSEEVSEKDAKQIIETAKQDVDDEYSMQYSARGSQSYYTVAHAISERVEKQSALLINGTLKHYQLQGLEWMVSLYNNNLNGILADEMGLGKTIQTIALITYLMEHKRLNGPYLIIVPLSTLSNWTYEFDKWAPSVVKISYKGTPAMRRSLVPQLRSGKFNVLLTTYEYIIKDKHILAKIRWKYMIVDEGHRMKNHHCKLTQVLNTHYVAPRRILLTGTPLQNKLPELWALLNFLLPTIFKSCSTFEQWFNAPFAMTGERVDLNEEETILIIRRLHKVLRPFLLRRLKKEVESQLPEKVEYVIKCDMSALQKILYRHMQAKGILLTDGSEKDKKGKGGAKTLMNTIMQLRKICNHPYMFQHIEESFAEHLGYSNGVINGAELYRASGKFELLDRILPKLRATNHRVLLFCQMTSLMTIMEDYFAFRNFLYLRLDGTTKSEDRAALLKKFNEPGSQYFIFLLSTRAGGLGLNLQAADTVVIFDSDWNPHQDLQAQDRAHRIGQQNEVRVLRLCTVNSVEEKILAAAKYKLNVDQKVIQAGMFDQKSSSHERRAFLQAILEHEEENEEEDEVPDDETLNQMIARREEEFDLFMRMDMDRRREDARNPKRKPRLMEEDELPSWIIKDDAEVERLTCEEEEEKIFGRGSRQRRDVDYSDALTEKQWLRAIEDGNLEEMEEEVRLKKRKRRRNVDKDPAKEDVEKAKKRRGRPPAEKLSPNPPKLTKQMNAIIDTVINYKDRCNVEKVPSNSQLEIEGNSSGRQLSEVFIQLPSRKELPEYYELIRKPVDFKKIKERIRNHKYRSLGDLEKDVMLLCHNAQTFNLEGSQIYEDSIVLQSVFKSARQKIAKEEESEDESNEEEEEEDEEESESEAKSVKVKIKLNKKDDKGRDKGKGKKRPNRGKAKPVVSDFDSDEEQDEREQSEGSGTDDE
T1 sequence (P51532 whole entry): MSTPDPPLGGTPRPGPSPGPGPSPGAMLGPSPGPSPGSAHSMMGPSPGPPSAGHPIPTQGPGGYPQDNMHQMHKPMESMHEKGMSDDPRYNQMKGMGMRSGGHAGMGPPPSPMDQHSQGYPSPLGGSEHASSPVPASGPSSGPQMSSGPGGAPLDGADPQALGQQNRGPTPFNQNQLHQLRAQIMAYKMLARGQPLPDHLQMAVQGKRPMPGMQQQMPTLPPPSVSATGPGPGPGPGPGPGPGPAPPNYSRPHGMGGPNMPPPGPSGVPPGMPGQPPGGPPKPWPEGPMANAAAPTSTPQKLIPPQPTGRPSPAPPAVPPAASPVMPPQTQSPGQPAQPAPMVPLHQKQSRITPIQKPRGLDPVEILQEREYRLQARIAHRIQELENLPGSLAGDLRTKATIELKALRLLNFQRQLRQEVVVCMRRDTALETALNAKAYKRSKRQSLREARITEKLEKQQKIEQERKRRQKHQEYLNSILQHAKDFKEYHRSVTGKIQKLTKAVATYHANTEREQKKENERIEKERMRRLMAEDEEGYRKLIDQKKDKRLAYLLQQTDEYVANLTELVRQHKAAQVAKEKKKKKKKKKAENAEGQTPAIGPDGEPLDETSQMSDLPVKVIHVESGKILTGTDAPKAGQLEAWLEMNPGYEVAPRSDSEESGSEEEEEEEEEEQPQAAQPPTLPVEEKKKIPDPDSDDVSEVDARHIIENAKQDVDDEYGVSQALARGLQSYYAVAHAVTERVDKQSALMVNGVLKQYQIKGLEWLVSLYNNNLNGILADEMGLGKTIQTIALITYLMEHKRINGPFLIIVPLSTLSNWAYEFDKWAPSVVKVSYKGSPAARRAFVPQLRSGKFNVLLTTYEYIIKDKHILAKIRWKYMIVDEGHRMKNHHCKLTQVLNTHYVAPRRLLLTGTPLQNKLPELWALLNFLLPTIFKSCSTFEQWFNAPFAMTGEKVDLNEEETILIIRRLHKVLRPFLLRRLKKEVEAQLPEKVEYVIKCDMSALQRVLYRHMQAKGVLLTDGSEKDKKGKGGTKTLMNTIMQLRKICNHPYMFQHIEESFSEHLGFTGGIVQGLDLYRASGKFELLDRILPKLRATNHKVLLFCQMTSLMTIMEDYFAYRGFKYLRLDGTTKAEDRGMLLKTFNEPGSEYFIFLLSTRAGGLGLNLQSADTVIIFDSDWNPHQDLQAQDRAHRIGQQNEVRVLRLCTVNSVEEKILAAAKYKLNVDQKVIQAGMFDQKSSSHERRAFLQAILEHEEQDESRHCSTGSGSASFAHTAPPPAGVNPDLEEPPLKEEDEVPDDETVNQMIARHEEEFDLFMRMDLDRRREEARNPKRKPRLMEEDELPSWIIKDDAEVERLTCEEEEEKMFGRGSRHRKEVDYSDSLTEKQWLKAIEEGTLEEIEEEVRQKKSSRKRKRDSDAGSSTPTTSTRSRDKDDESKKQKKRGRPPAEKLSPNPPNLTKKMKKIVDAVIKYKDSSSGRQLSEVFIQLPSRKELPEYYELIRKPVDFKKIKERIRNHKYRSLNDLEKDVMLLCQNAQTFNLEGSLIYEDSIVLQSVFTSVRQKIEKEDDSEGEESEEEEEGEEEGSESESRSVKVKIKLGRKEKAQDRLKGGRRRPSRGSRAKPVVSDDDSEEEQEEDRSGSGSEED

Turning to `Nc1nnc(-c2ccccc2O)cc1N1CC2CCC(C1)N2c1ccnc(C#CCN2CC(C3CC3)C2)c1` [Compound 150, 2-[6-amino-5-[8-[2-[3-(3-cyclopropylazetidin-1-yl)prop-1-ynyl]-4-pyridyl]-3,8-diazabicyclo[3.2.1]octan-3-yl]pyridazin-3-yl]phenol], at BRM, the DC50 is under 10 nM and the “BRM IF Degradation Sinf (%)” value is listed as “F (F indicates −71%-−120%)”. Also, on BRG1, the DC50 was under 10 nM and the Dmax fell in the range of 30 to 70%.
As to `Nc1nnc(-c2ccccc2O)cc1N1CC2CCC(C1)N2c1ccnc(C#CCN2CC3(C2)CC3(F)F)c1` [Compound 151, 2-[6-amino-5-[8-[2-[3-(2,2-difluoro-5-azaspiro[2.3]hexan-5-yl)prop-1-ynyl]-4-pyridyl]-3,8-diazabicyclo[3.2.1]octan-3-yl]pyridazin-3-yl]phenol], at BRM, the DC50 was under 10 nM and the “BRM IF Degradation Sinf (%)” value is “E (E indicates −30%-−70%)”. Also, at BRG1, the DC50 was under 10 nM and the Dmax lay within 0 to 30%.
On to `N#CCC1CN(CC#Cc2cc(N3C4CCC3CN(c3cc(-c5ccccc5O)nnc3N)C4)ccn2)C1` [Compound 152, 2-[1-[3-[4-[3-[3-amino-6-(2-hydroxyphenyl)pyridazin-4-yl]-3,8-diazabicyclo[3.2.1]octan-8-yl]-2-pyridyl]prop-2-ynyl]azetidin-3-yl]acetonitrile], for which, on BRM, the DC50 is under 10 nM and the “BRM IF Degradation Sinf (%)” value is on record as “E (E indicates −30%-−70%)”. Also, at BRG1, the DC50 was under 10 nM and the Dmax was 30 to 70%.
Consider `Nc1nnc(-c2ccccc2O)cc1N1CC2CCC(C1)N2c1ccnc(C#CCN2CCCCC23CC3)c1` [Compound 153, 2-[6-amino-5-[8-[2-[3-(4-azaspiro[2.5]octan-4-yl)prop-1-ynyl]-4-pyridyl]-3,8-diazabicyclo[3.2.1]octan-3-yl]pyridazin-3-yl]phenol], for which, on BRM, the DC50 is under 10 nM and the “BRM IF Degradation Sinf (%)” value is “E (E indicates −30%-−70%)”. In addition, on BRG1, the DC50 was under 10 nM and the Dmax was in the range of 0 to 30%.
Consider `Nc1nnc(-c2ccccc2O)cc1N1CC2CCC(C1)N2c1ccnc(C#CCN2CC(O)(C3CC3)C2)c1` [Compound 154, 1-[3-[4-[3-[3-amino-6-(2-hydroxyphenyl)pyridazin-4-yl]-3,8-diazabicyclo[3.2.1]octan-8-yl]-2-pyridyl]prop-2-ynyl]-3-cyclopropyl-azetidin-3-ol], for which, at BRM, the DC50 was under 10 nM and the “BRM IF Degradation Sinf (%)” value is given as “F (F indicates −71%-−120%)”. Also, on BRG1, the DC50 is under 10 nM and the Dmax lay within 30 to 70%.
In the case of `Nc1nnc(-c2ccccc2O)cc1N1CC2CCC(C1)N2c1ccnc(C#CCN2CC3(CCCC3)C2)c1` [Compound 155, 2-[6-amino-5-[8-[2-[3-(2-azaspiro[3.4]octan-2-yl)prop-1-ynyl]-4-pyridyl]-3,8-diazabicyclo[3.2.1]octan-3-yl]pyridazin-3-yl]phenol], on BRM, the DC50 is under 10 nM and the “BRM IF Degradation Sinf (%)” value is listed as “E (E indicates −30%-−70%)”. At BRG1, the DC50 is under 10 nM and the Dmax was 30 to 70%.
`CN1CC2(CCN(CC#Cc3cc(N4C5CCC4CN(c4cc(-c6ccccc6O)nnc4N)C5)ccn3)C2)C1` [Compound 156, 2-[6-amino-5-[8-[2-[3-(2-methyl-2,6-diazaspiro[3.4]octan-6-yl)prop-1-ynyl]-4-pyridyl]-3,8-diazabicyclo[3.2.1]octan-3-yl]pyridazin-3-yl]phenol]: at BRM, the DC50 is over 100 nM and the “BRM IF Degradation Sinf (%)” value is on record as “E (E indicates −30%-−70%)”. Further, at BRG1, the DC50 was over 100 nM and the Dmax is 30 to 70%.
On to `Nc1nnc(-c2ccccc2O)cc1N1CC2CCC(C1)N2c1ccnc(C#CCN2CC(C3CCOC3)C2)c1` (centres unmarked) [Compound 157, 2-[6-amino-5-[8-[2-[3-(3-tetrahydrofuran-3-ylazetidin-1-yl)prop-1-ynyl]-4-pyridyl]-3,8-diazabicyclo[3.2.1]octan-3-yl]pyridazin-3-yl]phenol], for which, on BRM, the DC50 fell in the range of 10 to 100 nM and the “BRM IF Degradation Sinf (%)” value is reported as “E (E indicates −30%-−70%)”. Moreover, on BRG1, the DC50 was in the range of 10 to 100 nM and the Dmax lay within 30 to 70%.
For the compound `Nc1nnc(-c2ccccc2O)cc1N1CC2CCC(C1)N2c1ccnc(C#CCN2CC(CC(F)F)C2)c1` [Compound 158, 2-[6-amino-5-[8-[2-[3-[3-(2,2-difluoroethyl)azetidin-1-yl]prop-1-ynyl]-4-pyridyl]-3,8-diazabicyclo[3.2.1]octan-3-yl]pyridazin-3-yl]phenol], at BRM, the DC50 was under 10 nM and the “BRM IF Degradation Sinf (%)” value is recorded as “F (F indicates −71%-−120%)”. On BRG1, the DC50 is under 10 nM and the Dmax was 30 to 70%.
Turning to `Nc1nnc(-c2ccccc2O)cc1N1CC2CCC(C1)N2c1ccnc(C#CCN2CCC23CCOCC3)c1` [Compound 159, 2-[6-amino-5-[8-[2-[3-(7-oxa-1-azaspiro[3.5]nonan-1-yl)prop-1-ynyl]-4-pyridyl]-3,8-diazabicyclo[3.2.1]octan-3-yl]pyridazin-3-yl]phenol], at BRM, the DC50 was under 10 nM and the “BRM IF Degradation Sinf (%)” value is “E (E indicates −30%-−70%)”. On BRG1, the DC50 was under 10 nM and the Dmax was 30 to 70%.
Regarding `Nc1nnc(-c2ccccc2O)cc1N1CC2CCC(C1)N2c1ccnc(C#CCN2CC3(COCCO3)C2)c1` [Compound 160, 2-[6-amino-5-[8-[2-[3-(5,8-dioxa-2-azaspiro[3.5]nonan-2-yl)prop-1-ynyl]-4-pyridyl]-3,8-diazabicyclo[3.2.1]octan-3-yl]pyridazin-3-yl]phenol], on BRM, the DC50 was in the range of 10 to 100 nM and the “BRM IF Degradation Sinf (%)” value is listed as “E (E indicates −30%-−70%)”. In addition, on BRG1, the DC50 lay within 10 to 100 nM and the Dmax is 0 to 30%.
For the compound `Nc1nnc(-c2ccccc2O)cc1N1CC2CCC(C1)N2c1ccnc(C#CCN2C[C@H]3OCC[C@H]32)c1` [Compound 161, 2-[6-amino-5-[8-[2-[3-[(1R,5R)-2-oxa-6-azabicyclo[3.2.0]heptan-6-yl]prop-1-ynyl]-4-pyridyl]-3,8-diazabicyclo[3.2.1]octan-3-yl]pyridazin-3-yl]phenol], on BRM, the DC50 is under 10 nM and the “BRM IF Degradation Sinf (%)” value is “E (E indicates −30%-−70%)”. For the same compound, on BRG1, the DC50 is 10 to 100 nM and the Dmax was in the range of 30 to 70%.
The matching figures for `Nc1nnc(-c2ccccc2O)cc1N1CC2CCC(C1)N2c1ccnc(C#CCN2CC3CCCC32)c1` (centres unmarked) [Compound 162, 2-(5-(8-(2-(3-(6-azabicyclo[3.2.0]heptan-6-yl)prop-1-yn-1-yl)pyridin-4-yl)-3,8-diazabicyclo[3.2.1]octan-3-yl)-6-aminopyridazin-3-yl)phenol]: under 10 nM, “F (F indicates −71%-−120%)”, under 10 nM and 30 to 70%.
On the same counts, the results for `CNC(=O)[C@@H]1CCCN1CC#Cc1cc(N2C3CCC2CN(c2cc(-c4ccccc4O)nnc2N)C3)ccn1` [Compound 163, (2S)-1-[3-[4-[3-[3-amino-6-(2-hydroxyphenyl)pyridazin-4-yl]-3,8-diazabicyclo[3.2.1]octan-8-yl]-2-pyridyl]prop-2-ynyl]-N-methyl-pyrrolidine-2-carboxamide] are 10 to 100 nM, “E (E indicates −30%-−70%)”, over 100 nM and 30 to 70%.
